In patent publication US9540646B2, “Cellular targets for HIV infection” (priority 2012, dated 2017):
Entries after “also recorded” stand apart in the source; their conditions may differ.

How the values were obtained:
[1] = target: T1, Panx1 hemichannels (Homo sapiens, UniProt Q96RD7); assay: HIV-induced ethidium (Etd) dye uptake, time lapse fluorescence imaging, in PBMCs and CD4+ T lymphocytes; format: cell-based; design: endogenous in cells; host or cells: primary human PBMCs and purified CD4+ T lymphocytes from leukopacks (New York Blood Center); conditions: PBMCs exposed to HIVADA; CD4+ T lymphocytes exposed to HIVADA, HIVBal or HIVLAI; 5 min and 72 h; Prob 500 μM, 10Panx1 200 μM, scrPanx1 200 μM, La3+ 200 μM, Cx43E2 1:500, siRNA 10 nM
T1 sequence (Q96RD7 whole entry): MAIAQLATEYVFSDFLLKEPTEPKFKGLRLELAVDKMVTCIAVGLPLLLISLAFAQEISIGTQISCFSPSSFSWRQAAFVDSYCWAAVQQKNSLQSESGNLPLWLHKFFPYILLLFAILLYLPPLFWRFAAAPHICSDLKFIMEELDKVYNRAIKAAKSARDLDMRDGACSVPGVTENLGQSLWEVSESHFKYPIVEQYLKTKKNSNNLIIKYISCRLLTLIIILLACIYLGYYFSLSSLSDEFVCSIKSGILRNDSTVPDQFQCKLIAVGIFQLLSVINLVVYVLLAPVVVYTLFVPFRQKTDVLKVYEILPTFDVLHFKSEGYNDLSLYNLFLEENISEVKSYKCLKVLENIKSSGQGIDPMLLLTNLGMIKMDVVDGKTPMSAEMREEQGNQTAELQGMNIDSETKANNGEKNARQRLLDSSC
Description: Isolation of human PBMCs and CD4+ T lymphocytes. Anticoagulated blood was obtained from leukopacks obtained from the New York Blood Center as described before (16). PBMCs were isolated by under-layering with Ficoll-Paque (Amersham Bioscience, Uppsala, Sweden) according to the procedure described by the manufacturer. Purified PBMC used in these studies were ˜10% monocytes and ˜90% lymphocytes and other hematopoietic cells, as determined by incubation with premixed human CD45 and CD14 monoclonal antibodies conjugated to FITC and PE, respectively (1:50, Caltag Laboratories, Burlingame, Calif.), followed by fluorescence-activated cell sorter analysis (FACS) as we previously described (17). To obtain a pure population of CD4+ T lymphocytes, monocytes were removed from PBMCs by using CD14 coupled magnetic beads and subsequently CD4+ T lymphocytes were isolated with CD4 coupled magnetic beads (Stem Cell Technologies, Vancouver, BC, Canada).
(§1) HIV-infection and quantification of replication. Cell-free viral inocula were obtained from the National Institutes of Health AIDS Research and Reference Reagent Program. Three isolates were used: HIVADA, and HIVBal, two R5 isolates and HIVLAI, an X4 isolate, PBMCs and purified CD4+ T lymphocytes were isolated and activated with phytohemagglutinin (PHA; 5 μg/ml) plus interleukin (IL-2; 5%) in RPMI 1640 for 48 h in polypropylene tubes at a density of 2×10^6 […] PBMCs and CD4+ T lymphocytes were then infected by incubation for 24 h with viral stocks of HIVADA (20 ng p24/ml/1×10^6 cells), HIVLAI (20 ng p24/ml/1×10^6 cells) or HIVBal (0.001 MOI), washed thoroughly, resuspended in fresh medium, and maintained in polypropylene tubes. Uninfected control cells were activated with PHA plus IL-2 for 48 h, washed, and maintained in polypropylene tubes in fresh media without any virus. To determine the levels of HIV infection, the amount of HIV-p24 released into the medium was determined by ELISA (PerkinElmer, Boston, Mass.)
(§2) Dye uptake and time lapse fluorescence imaging. To characterize the functional state of Panx1 hemichannels, dye uptake experiments using ethidium (Etd) bromide were performed as previously described (18, 19). Cells were washed twice in Hank's balanced salt solution and then exposed to Locke's solution (containing: 154 mM NaCl, 5.4 mM KCl, 2.3 mM CaCl2, 5 mM HEPES and pH 7.4) with 5 μM Etd and time lapse microscopy was performed. Phase-contrast and fluorescence microscopy with time-lapse imaging were used to record cell appearance and fluorescence intensity changes in each condition. Fluorescence was recorded every 30 s. The NIH ImageJ program was used for off-line image analysis and fluorescence quantification. For data representation and calculation of Etd uptake slopes, the average of two independent background fluorescence intensity measurements (FB, expressed as arbitrary units, AU) was subtracted from fluorescence intensity′ in each cell (F1). Results of this calculation (F1-FB), for at least 20 cells, were averaged and plotted against time (expressed in minutes). Slopes were calculated using Microsoft Excel software and expressed as AU/min. Microscope and camera settings remained the same in all experiments. Dead cells were clearly identified during the time lapse microscopy due to their non specific Etd uptake (not inhibited by hemichannel blockers) and were not quantified.

[2] = target: T1, Panx1 hemichannels; assay: HIV-induced Etd uptake in CD4+ T lymphocytes by flow cytometry (FACS); format: cell-based; design: endogenous in cells; host or cells: primary human PBMCs and purified CD4+ T lymphocytes from leukopacks (New York Blood Center); conditions: HIVADA, 5 min and 72 h
Description: Flow cytometry. To measure Etd uptake in CD4+ T cell populations FACS analysis was performed of cells under control conditions or after HIV exposure at several time points. Etd uptake experiments were performed in CD4+ lymphocytes (3-5×10^5), and after the respective time of Etd uptake, cells were fixed with 2% paraformaldehyde for 30 min at room temperature, incubated with 1% BSA in PBS for 30 min and stained with CD4 antibody for 30 min at 4° C. For analyses of Etd positive populations, 10,000 events were acquired on a BD FACS Canto II and analyzed using FlowJo (Ashland, Oreg.) software as we previously described (17, 20).

[3] = target: T1, Panx1 hemichannels; assay: Etd uptake in CD4+ T lymphocytes induced by chemokines or gp120; format: cell-based; design: endogenous in cells; host or cells: primary human PBMCs and purified CD4+ T lymphocytes from leukopacks (New York Blood Center); conditions: gp120 1 μg/ml, 5 min
Description: as §2

[4] = test system: HIVADA; assay: HIV replication in CD4+ T lymphocytes, HIV-p24 ELISA; format: cell-based, Human immunodeficiency virus-1 (HIV); conditions: supernatants each day for 7 days, 10Panx1 200 μM, scrPanx1 200 μM, siRNA 10 nM
Description: as §1

[5] = test system: HIV; assay: HIV replication in macrophage cultures, strain not named; format: cell-based; conditions: macrophage cultures; BBG concentration and strain not printed at the place
Description: (§3) HIV replication: After 6 days in culture, macrophages in 48-well plates at a density of 10^5 cells per well were inoculated with 2-20 ng/ml HIVADA, 2 ng/ml HIVYU-2, or 0.2 ng/ml HIVBaL for 24 hours in the presence or absence of purinergic receptor inhibitors. 5 wells were inoculated per condition. After 24 hours, cells were washed with PBS and then cultured with media. Supernatants were collected and medium was changed every 24 hours until 7 days post inoculation (d.p.i.). When the inhibitors oATP, A-740003, MRS 2179, NF 279, BBG, or suramin, were used, they were added when the medium was changed every 24 hours. Viral replication was analyzed by HIV p24 ELISA (Advanced Bioscience Laboratories, Kensington, Md.) according to the manufacturer's instructions

[6] = test system: Macrophages; assay: Cell viability of macrophages, live/dead assay; format: cell-based; conditions: 100 μM, 24 hours
Description: Cells were imaged using a Zeiss AxioObserver.D1 with an LD Plan-Neofluar 20×/0.4 air objective lens. Images were collected at room temperature through a Zeiss AxioCam MRm camera using Axiovision software.

[7] = cited from earlier work
[8] = test system: HIVADA; assay: Immunofluorescence, percentage of HIV p24 positive macrophages; format: cell-based, Human immunodeficiency virus-1 (HIV); conditions: 100 μM oATP, 7 d.p.i.
Description: Immunofluorescence: After 6 days in culture, macrophages cultured in 35 mm MatTek dishes at a density of 10^6 cells per dish were inoculated with 20 ng/ml HIVADA for 24 hours in the presence or absence of oATP. Two MatTek dishes were inoculated per condition. After 24 hours, cells were washed with PBS and cultured with media. Fresh oATP was added and the medium was changed every 24 hours until 7 d.p.i. Cells were then fixed using cold 70% ethanol for 20 minutes. Cells were washed with PBS and blocked using 0.9% fish gelatin, 50 μM EDTA. 1% horse serum, and 1% globulin-free albumin. The following primary antibodies were used: mouse monoclonal HIV p24 antibody from Abeam at a 1:50 dilution (Cambridge, Mass.) or mouse myeloma IgG1 (Sigma) as a negative control. Secondary antibody staining was with anti-mouse IgG F(ab)′2 fragment conjugated to FITC (Sigma). Actin was stained using Texas Red-X conjugated to phalloidin (Invitrogen, Eugene, Oreg.). ProLong Gold antifade reagent containing DAPI was added to all cells to stain for nuclei. Cells were imaged using a Zeiss AxioObserver.D1 with an LD Plan-Neofluar 20×/0.4 air objective lens. […] Images for 15 fields per condition were analyzed and percentage of p24 positive cells determined by counting number of nuclei in cells with green cytoplasmic staining.

[9] = test system: β-lactamase containing HIVBaL; assay: HIV Entry Assay (β-lactamase / CCF2-AM) in primary human macrophages; format: cell-based, Human immunodeficiency virus-1 (HIV); conditions: 100 μM; 4 hours; MOI 0.001-0.01; oATP N=5, others N=3
Description: HIV Entry Assay: Primary human macrophages were cultured in black 96-well plates with a clear bottom (Corning Inc., Corning, N.Y.) at a density of 43,000 cells per well. After 7-8 days in culture, cells were inoculated with β-lactamase containing HIVBaL at a multiplicity of infection (MOI) of 0.01, 0.005, or 0.001 in the presence or absence of the purinergic receptor inhibitors oATP, NF 279, A-740003, or MRS 2179 for 4 hours. Beta-lactamase containing HIVBaL was generated as described previously (27). Briefly, HEK-293T cells were transfected using calcium phosphate with two plasmids, one containing the HIVBaL genome, pWT/BaL (NIH repository), the other containing β-lactamase fused to REV vpr, pMM310 (NIH repository). Cells were transfected for 16 hours and then supernatant was collected 24 and 48 hours following transfection. […] Viral stocks were generated by sucrose gradient purification of the transfection supernatants.
Alter viral inoculation of primary human macrophages, cells were washed with phenol red-free DMEM (Gibco) then loaded with CCF2-AM for 6 hours at room temperature using the GeneBLAzer In Vivo Detection Kit (Invitrogen, Carlsbad, Calif.). CCF2-AM fluoresces green due to an internal fluorescence resonance energy transfer, but when cleaved by β-lactamase, this interaction is lost and the molecule fluoresces blue. Cells were imaged using an Olympus IX70 with a Plan 10×/0.25 air objective lens. Images were collected at room temperature through an Olympus E-620LS camera attached to the microscope through an OM adapter MF-1. Images were collected directly onto a memory card and there was no image processing following image collection. Images were collected for 8 fields in 4 separate wells per condition and percentage of cells positive for viral entry was determined by counting the number of blue cells (cells that virus had entered) as compared to the total number of blue and green cells.

[10] = test system: purinergic receptors; conditions: in vivo mouse model; reference 99; cited from earlier work
[11] = test system: HIVBaL; assay: HIV replication in primary human macrophages, HIV p24 ELISA; format: cell-based, Human immunodeficiency virus-1 (HIV); conditions: 100 μM oATP; according to d.p.i.; N=3
Description: (§4) Monocyte isolation and macrophage culture: Human monocytes were isolated from leukopaks obtained from the New York Blood Center. Peripheral blood mononuclear cells (PBMCs) were isolated by differential centrifugation using a Ficoll gradient (GE Healthcare, Piscataway, N.J.) and CD14 positive cells were isolated from PBMCs using CD14 monoclonal antibodies that were then bound by magnetic nanoparticles and separated using a magnetic field (Stem Cell Technologies, Vancouver, BC, Canada). Isolated CD14 positive cells were cultured adherently for 6 days in the presence of 10 ng/ml macrophage-colony stimulating factor (PeproTech, Rocky Hill, N.J.) in RPMI 1640 with 10% FBS, 5% human AB serum, 1% P/S, and 10 mM HEPES to differentiate the cells into macrophages.
as §3

[12] = test system: HIVADA; assay: as above; format: cell-based, Human immunodeficiency virus-1 (HIV)
Description: as §4, §3

[13] = test system: HIVYU-2; assay: as above; format: cell-based, Human immunodeficiency virus-1 (HIV); conditions: 100 μM oATP; every d.p.i.; N=3
Description: as §4, §3

In the case of “WRQAAFVDSY (Panx1 mimetic blocking peptide) [10Panx1]”, the “Etd uptake (rate) induced by the virus” value [1] is reported as “completely blocked; also recorded: completely reduced”, the “Etd uptake induced by the virus, analyzed by FACS” value [2] is reported as “reduced Etd uptake; also recorded: reduced to control conditions (100%)” and the “gp120-induced Etd uptake, in presence of blockers” value [3] is reported as “inhibited”. For the same compound, the “HIV replication (HIV-p24 release into the media)” value [4] was “abolished HIV replication to almost control undetectable levels; also recorded: dramatically reduced”.
For CCOc1ccc(Nc2ccc(/C(=C3C=C/C(=[N+](/CC)Cc4cccc(S(=O)(=O)[O-])c4)C=C/3C)c3ccc(N(CC)Cc4cccc(S(=O)(=O)[O-])c4)cc3C)cc2)cc1.[Na+] [BBG, brilliant blue G], the “inhibition of viral replication relative to cultures infected with HIV only” value [5] is given as 54-90%, the “cell viability (live/dead assay)” value [6] is given as “None of the antagonist caused any decrease in cell viability” and the “recovery after spinal cord injury” value ([7]; rat model of traumatic spinal cord injury, reference 75) is given as “recovery of motor function and limited inflammation following spinal cord injury”. The toxicity in vivo ([7]; rat, in vivo) was “without any toxicity”.
With “FADRYWAQVS (scrambled peptide) [scrPanx1]” the “Etd uptake (rate) induced by the virus” value [1] was “did not affect”, the “gp120-induced Etd uptake, in presence of blockers” value [3] was “No effects” and the “HIV replication (HIV-p24 release into the media)” value [4] was “did not alter”.
With Nc1ncnc2c1ncn2[C@@H](C=O)O[C@@H](C=O)COP(=O)(O)OP(=O)(O)OP(=O)(O)O [oATP, oxidized ATP] the “decrease in the percentage of HIV p24 positive cells” value ([8]; 20 ng/ml HIVADA, N=3) was 92%, the “multinucleated giant cells in cultures” value ([8]; HIVADA, compared to HIV infected cultures) was “very few multinucleated giant cells were detected” and the “reduction in viral entry (percentage of cells with viral entry) relative to HIV only” value [9] was 57%. For the same compound, the “onset of diabetes and inflammatory bowel disease” value [10] was “can prevent the onset of diabetes and inflammatory bowel disease”, the “cell viability (live/dead assay)” value [6] was “None of the antagonist caused any decrease in cell viability; also recorded: did not reduce cell viability” and the “HIVBaL replication reduced relative to HIV only” value [11] was 89-97%. For the same compound, the “effect on HIVADA p24 production” value ([12]; 1 μM oATP, N=5) was “no effect”, the “inhibition of HIVADA p24 production relative to HIV only” value ([12]; 10 μM oATP, depending upon d.p.i., N=5) was 50-85% and the “HIVADA replication reduced (HIV p24) relative to HIV only” value ([12]; 100 μM oATP, depending upon the d.p.i., up to 7 d.p.i., N=10) was 92-99%. For the same compound, the “HIVYU-2 replication reduced relative to HIV only” value [13] was “over 99%”.
